Data set [1] can be described thus: Plasma pharmacokinetics in the TMD8 xenograft efficacy study. The data set is classed as in vivo, mouse. To be noted: TMD8 xenograft mice; oral; day 20; 1, 2, 4 and 8-hour time points. How it is done:
(§1) TMD8 human ABC-DLBCL tumor cells (5×10^6/mouse) were implanted subcutaneously in female CB.17 SCID mice. […] Tumor length and width was measured by caliper and tumor volume was calculated using the formula (length×width^2)*π/6.

The test system of data set [2] is OCI-Ly10 human ABC DLBCL xenograft. In words: In vivo efficacy in subcutaneous OCI-Ly10 human ABC-DLBCL xenograft model. Also on record: species or system mouse. The note with it: SCID mice, oral BID, acalabrutinib 20 mg/kg; for TGI (tumor growth inhibition): capivasertib 130 mg/kg 4 days on/3 days off, after 25 days of treatment; for MAX AVG BODY WEIGHT LOSS: capivasertib 130 mg/kg, 25-day study. As for the experimental part:
OCI-ly10 human ABC-DLBCL tumor cells (5×10^6/mouse) were implanted subcutaneously in female CB.17 SCID mice. […] Tumor length and width was measured by caliper and tumor volume was calculated using the formula (length×width^2)*π/6.

For a further data set, the system named is OCI-LY10 cells. As to the kind of experiment: Western blot analysis of phospho-proteins. The data set is classed as cell-based, human. The note with it: 2 or 24 hours; for phosphorylation of AKTS473: 100 nM acalabrutinib or both. From the text: (§2) Cells were then lysed in SDS lysis buffer, centrifuged and protein concentrations estimated. Samples were loaded onto Bis-Tris Novex gels, transferred onto nitrocellulose membranes and probed for phospho-proteins of interest.

For the next data set, the system named is TMD8 cells. In words: Western blot analysis of phospho-proteins. The data set is classed as cell-based, human. The note with it: 2 or 24 hours; for phosphorylation of AKTS473: 100 nM acalabrutinib or both.
Source text: as §2
(A western blot detects proteins with antibodies after separation by electrophoresis.)

The test system of data set [3] is TMD8 human ABC DLBCL xenograft. As to the kind of experiment: In vivo efficacy in subcutaneous TMD8 human ABC-DLBCL xenograft model. Also on record: species or system mouse. To be noted: SCID mice, oral BID, acalabrutinib 20 mg/kg; for TGI (tumor growth inhibition): capivasertib 130 mg/kg 4 days on/3 days off, after 24 days of treatment; for MAX AVG BODY WEIGHT LOSS: capivasertib 130 mg/kg, 24-day study. How it is done:
as §1
(In general: In xenograft studies the graft and the host belong to different species.)

The subject of a further data set is WSU-DLCL2. In words: Cell viability assay (Cell Titer Glo, 72 hours). The data set is classed as cell-based. The note with it: Homo sapiens, WSUDLCL2, WSU-DLCL2, DLBCL GCB subtype, single agent. As for the experimental part:
(§3) In addition, the study further explored the mechanism of action of the combination of acalabrutinib and capivasertib using western blot analysis.
(§4) Cell viability was measured using Cell Titer Glo reagent and readouts were taken using a Tecan plate reader with a 100 ms integration time. Data analysis was carried out using GeneData software version 15. A growth inhibition value less than 1 μM (GI50<1 μM) indicates sensitivity.
On the technique in general: Cellular ATP, detected with luciferase, serves as a proxy for viable cell number.

The next data set relates to Karpas-422. In words: Cell viability assay (Cell Titer Glo, 72 hours). Format: cell-based. To be noted: Homo sapiens, Karpas-422, DLBCL GCB subtype, single agent. As for the experimental part: as §3, §4
A further data set deals with WILL1. As to the kind of experiment: Cell viability assay (Cell Titer Glo, 72 hours). Format: cell-based. The note with it: WILL-1, WILL1, DLBCL Int subtype, single agent. How it is done:
as §3, §4

The subject of the next data set is SuDHL4. In words: Cell viability assay (Cell Titer Glo, 72 hours). To be noted: Homo sapiens, SU-DHL-4, SuDHL4, DLBCL GCB subtype, single agent. Format: cell-based. As for the experimental part:
as §3, §4

A further data set has as its system OCI-LY10. As to the kind of experiment: Cell viability assay (Cell Titer Glo, 72 hours). The note with it: Homo sapiens, OCI-LY10, DLBCL ABC subtype, single agent. The data set is classed as cell-based. How it is done: as §3, §4
The test system of the next data set is SuDHL6. In words: Cell viability assay (Cell Titer Glo, 72 hours). Format: cell-based. To be noted: Homo sapiens, SU-DHL-6, SuDHL6, DLBCL GCB subtype, single agent. As for the experimental part: as §3, §4
The subject of the next data set is OCI-LY19. In words: Cell viability assay (Cell Titer Glo, 72 hours). The data set is classed as cell-based. The note with it: Homo sapiens, OCI-LY19, DLBCL GCB subtype, single agent. How it is done:
as §3, §4

Another data set relates to OCI-LY3. In words: Cell viability assay (Cell Titer Glo, 72 hours). The note with it: Homo sapiens, OCI-LY3, DLBCL ABC subtype, single agent. The data set is classed as cell-based. As for the experimental part: as §3, §4
The subject of a further data set is HLY1. As to the kind of experiment: Cell viability assay (Cell Titer Glo, 72 hours). The data set is classed as cell-based. To be noted: Homo sapiens, HLY1, DLBCL ABC subtype, single agent. As for the experimental part:
as §3, §4

A further data set deals with TMD8. As to the kind of experiment: Cell viability assay (Cell Titer Glo, 72 hours). To be noted: Homo sapiens, TMD8, DLBCL ABC subtype, single agent. The data set is classed as cell-based. How it is done: as §3, §4
The next data set relates to U2932. In words: Cell viability assay (Cell Titer Glo, 72 hours). The data set is classed as cell-based. To be noted: Homo sapiens, U2932, DLBCL ABC subtype, single agent. As for the experimental part:
as §3, §4

Experimental findings from patent US12691113B2 (AstraZeneca AB, priority 2019, dated 2026) are described below.

By GI50 is commonly meant the concentration that inhibits growth by half.

Entries after “also recorded” stand apart in the source; their conditions may differ.

On to `CC#CC(=O)N1CCC[C@H]1c1nc(-c2ccc(C(=O)Nc3ccccn3)cc2)c2c(N)nccn12` [acalabrutinib, 4-{8-amino-3-[(2S)-1-(but-2-ynoyl)pyrrolidin-2-yl]imidazo[1,5-a]pyrazin-1-yl}-N-(pyridin-2-yl)benzamide], for which the “steady-state drug exposure levels (unbound plasma concentrations), single agent versus combination” value in data set [1] is listed as “similar; also recorded: comparable”. The “TGI (tumor growth inhibition)” value came to 74% in [2], 74% in data set [2] (listed as Acalabrutinib), 81% in data set [3] and 81% in [3] (listed as Acalabrutinib). Also, the “MAX AVG BODY WEIGHT LOSS” value in data set [2] was determined as 2%; in [3], 5%. Besides, the “phosphorylation of BTK” value in the data set on OCI-LY10 cells (100 nM acalabrutinib) and in the data set on TMD8 cells (100 nM acalabrutinib) was “decrease” in each case. The “phosphorylation of AKTS473” value with OCI-LY10 cells (1 μM capivasertib) and in the data set on TMD8 cells (1 μM capivasertib) was “decreased” in each case. The GI50 in the data set on WSU-DLCL2 is greater than 3000 nM; in the data set with Karpas-422, greater than 3000 nM; in the data set on WILL1 it was greater than 3000 nM; in the data set with SuDHL4, greater than 3000 nM; in the data set on OCI-LY10 it was 22 nM; in the data set on SuDHL6, greater than 3000 nM. For the same molecule, the concentration for 50% growth inhibition (GI50) is greater than 3000 nM in the data set on OCI-LY19; greater than 3000 nM with OCI-LY3; greater than 3000 nM with HLY1; 25 nM in the data set with TMD8; greater than 3000 nM in the data set with U2932.

Consider `NC1(C(=O)N[C@@H](CCO)c2ccc(Cl)cc2)CCN(c2ncnc3[nH]ccc23)CC1` [capivasertib, (S)-4-amino-N-(1-(4-chlorophenyl)-3-hydroxypropyl)-1-(7H-pyrrolo[2,3-d]pyrimidin-4-yl)piperidine-4-carboxamide], for which the “TGI (tumor growth inhibition)” value in data set [2], in [2] (listed as Capivasertib), in data set [3] and in data set [3] (listed as Capivasertib) was 0% in each case. For the same molecule, the “MAX AVG BODY WEIGHT LOSS” value is on record as 3% in data set [2] and 2% in data set [3]. Further, the “phosphorylation of AKTS473” value with OCI-LY10 cells (1 μM capivasertib) and in the data set with TMD8 cells (1 μM capivasertib) was “increased” throughout. Moreover, the “phosphorylation of the downstream substrates PRAS40, GSK3β, FOXO and S6” value with OCI-LY10 cells (1 μM capivasertib) and with TMD8 cells (1 μM capivasertib) was “decreased” each time. Also, the 50% growth inhibitory concentration (GI50) in the data set on WSU-DLCL2 was 60 nM; in the data set with Karpas-422 it was 200 nM; with WILL1, greater than 3000 nM; with SuDHL4, 710 nM; in the data set with OCI-LY10 it was greater than 3000 nM; in the data set with SuDHL6 it was 360 nM. The concentration for 50% growth inhibition (GI50) with OCI-LY19, with OCI-LY3, in the data set with HLY1, in the data set on TMD8 and with U2932 was greater than 3000 nM in each case.
